The source of these data is PubChem BioAssay (NCI).

Among the test systems are UO-31 renal; CAKI-1 renal; OVCAR-8 ovarian; U251 CNS; UACC-257 melanoma; NCI-H460 lung; SK-OV-3 ovarian; SN12C renal; RXF 393 renal; HCT-116 colon.
Common to all, as to test: inhibition of tumour cell growth, NCI panel, 48 h

The structures appear in SMILES notation. Values joined by “and” are separate entries in the source; they are usually repeats but may differ in a detail not shown here. Equal entries are not always repeated.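 A five-concentration, 48-hour dose response in 96-well plates underlies each endpoint, interpolated linearly between surrounding concentrations. The concentration for 50% growth inhibition is given as GI50. At the TGI there is no net growth.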

As to `CCOC(=O)C1SC(=Nc2ccc(C)c(C)c2)N=C1C` (stereo unspecified), the TGI with UO-31 renal, in the test with CAKI-1 renal, in the test on OVCAR-8 ovarian, with U251 CNS, with UACC-257 melanoma and in the test on NCI-H460 lung was above 100 µM throughout. Further, the TGI in the test on SK-OV-3 ovarian and with SN12C renal was above 100 µM each time.
Consider `NC(=O)c1cc(Cl)ccc1NC(=O)/C=C/c1ccccc1`, for which the GI50 in the test on UO-31 renal is 10.1 µM; with OVCAR-8 ovarian, 4.7 µM; in the test on U251 CNS, 2.95 µM; in the test on RXF 393 renal, 2.19 µM; in the test on UACC-257 melanoma, above 38.8 µM; in the test on NCI-H460 lung, 3.09 µM. The GI50 is 2.66 µM with HCT-116 colon, 4.3 µM with SK-OV-3 ovarian and 5.47 µM in the test on SN12C renal. Moreover, the TGI in the test with UO-31 renal was above 100 µM; in the test with OVCAR-8 ovarian it was above 100 µM; in the test with U251 CNS it was above 35.4 µM; in the test with RXF 393 renal, 6.53 µM; with UACC-257 melanoma, above 100 µM; with NCI-H460 lung, above 100 µM. Also, the figures for the TGI with HCT-116 colon, in the test with SK-OV-3 ovarian and in the test with SN12C renal were above 100 µM, above 35.5 µM and above 100 µM, respectively.
In the case of `COc1ccc2c3c([nH]c2c1[N+](=O)[O-])C(C)N(C)CC3` (stereo unspecified), the TGI with UO-31 renal, in the test on CAKI-1 renal, in the test with OVCAR-8 ovarian, in the test on U251 CNS, with UACC-257 melanoma and in the test with NCI-H460 lung was above 100 µM each time. The TGI with HCT-116 colon, with SK-OV-3 ovarian and with SN12C renal was above 100 µM each time.
With `O=C(N/N=C/c1cc(Br)ccc1O)N/N=C/c1cc(Br)ccc1O`, the TGI is above 100 µM in the test with UO-31 renal; above 100 µM in the test with CAKI-1 renal; 21.1 µM in the test with OVCAR-8 ovarian; above 100 µM with U251 CNS; above 100 µM in the test on RXF 393 renal; above 100 µM in the test on UACC-257 melanoma. Moreover, the TGI in the test with NCI-H460 lung, in the test with SK-OV-3 ovarian and with SN12C renal was above 100 µM throughout.
Consider `Cn1c(O)c(C(=O)NC2CCCCC2)c(=O)n(C)c1=S`, for which the TGI in the test with CAKI-1 renal came to 26.5 µM; in the test on OVCAR-8 ovarian, 17.9 µM; in the test on U251 CNS, 26.7 µM; in the test with UACC-257 melanoma it was 28.5 µM; in the test with NCI-H460 lung, 21.9 µM; with SK-OV-3 ovarian, 23.8 µM. The compound also returned a TGI with SN12C renal of 59.9 µM.
With `COc1cc(Cc2nccc3cc(OC)c(OC)cc23)c(C(C)=O)cc1OC`, the GI50 in the test with UO-31 renal was above 750 µM; in the test with CAKI-1 renal, above 750 µM; in the test with RXF 393 renal, above 750 µM; with UACC-257 melanoma, 55 µM and 49 µM and 35.4 µM; with NCI-H460 lung it was 52.9 µM and 85.5 µM and 340 µM. In addition, the TGI in the test on UO-31 renal was above 750 µM; with CAKI-1 renal, above 750 µM; with OVCAR-8 ovarian, 3 µM; with U251 CNS, 300 µM and > 750 µM; in the test with RXF 393 renal, 300 µM and > 750 µM; with UACC-257 melanoma it was 116 µM and 144 µM. Moreover, the TGI was 300 µM and > 750 µM in the test with NCI-H460 lung; 254 µM in the test with SK-OV-3 ovarian; 30 µM with SN12C renal.
Take `COc1ccc(-c2cc(-c3cc(C)cc(Br)c3O)no2)cc1`: the TGI in the test on UO-31 renal is 31.9 µM; in the test with CAKI-1 renal, 24 µM; in the test on OVCAR-8 ovarian, above 100 µM; with U251 CNS it was 33.5 µM; in the test on UACC-257 melanoma it was above 100 µM; in the test on NCI-H460 lung, 44.5 µM. The TGI with HCT-116 colon was determined as 28.5 µM; in the test with SN12C renal, 85.2 µM.
With `CCCC1=C(CC)C(C(=O)Nc2c(C)cccc2C)=NC(S)N1` (stereo unspecified), the TGI in the test with UO-31 renal, in the test on CAKI-1 renal, in the test on OVCAR-8 ovarian, in the test on U251 CNS, with UACC-257 melanoma and with NCI-H460 lung was above 100 µM in each case. The TGI in the test on HCT-116 colon and with SN12C renal was above 100 µM each time.
Regarding `CCOC(=O)C1CCN(S(=O)(=O)/N=C2/NC(=O)NC2=C(Cl)Cl)CC1`, the GI50 in the test on UO-31 renal is 1.73 µM; in the test with OVCAR-8 ovarian, 3.76 µM; with U251 CNS it was 1.9 µM; in the test with RXF 393 renal it was 1.61 µM; in the test on UACC-257 melanoma, 2.38 µM; with NCI-H460 lung, 3.19 µM. For the same compound, the GI50 was 0.736 µM in the test on HCT-116 colon, 9.94 µM with SK-OV-3 ovarian and 1.55 µM in the test with SN12C renal. Also, the TGI in the test with UO-31 renal was 4.02 µM; in the test with OVCAR-8 ovarian, 19.9 µM; in the test with U251 CNS, 3.47 µM; in the test with RXF 393 renal, 3.06 µM; in the test with UACC-257 melanoma, 7.24 µM; in the test with NCI-H460 lung, 11.4 µM. Besides, the TGI in the test on HCT-116 colon worked out at 2.48 µM; in the test with SK-OV-3 ovarian, 21.7 µM; in the test with SN12C renal, 3.1 µM.
Regarding `COc1ccc(C(=O)c2cc(C)c(OC)c(C)c2)cc1OC(=O)CCl`, the TGI is above 100 µM in the test on UO-31 renal; above 100 µM in the test on OVCAR-8 ovarian; above 100 µM in the test on U251 CNS; above 100 µM in the test on UACC-257 melanoma; 18.5 µM in the test on NCI-H460 lung; above 100 µM with HCT-116 colon. Further, the TGI in the test with SK-OV-3 ovarian and with SN12C renal was above 100 µM throughout. Also, the GI50 in the test on OVCAR-8 ovarian is below 0.01 µM; in the test with U251 CNS, below 0.01 µM; with UACC-257 melanoma, 19 µM; in the test on NCI-H460 lung, below 0.01 µM; with HCT-116 colon, below 0.0111 µM; in the test with SK-OV-3 ovarian, below 0.0238 µM. For the same compound, in the test on SN12C renal, the GI50 is below 0.01 µM.
Take `COC(=O)C12CC3CC(CC(C(=O)O)(C3)C1)C2`: the TGI in the test on UO-31 renal, in the test with CAKI-1 renal, with OVCAR-8 ovarian, in the test on U251 CNS, in the test with UACC-257 melanoma and with NCI-H460 lung was above 100 µM in each case. The TGI in the test on HCT-116 colon, in the test with SK-OV-3 ovarian and in the test on SN12C renal was above 100 µM each time.
With `O=C1c2ccccc2C(=O)C1(O)c1c[nH]c2ccccc12`, the TGI in the test with UO-31 renal, in the test with CAKI-1 renal, with OVCAR-8 ovarian, in the test on U251 CNS, with UACC-257 melanoma and with NCI-H460 lung was above 100 µM throughout. Further, the TGI in the test on HCT-116 colon and in the test with SK-OV-3 ovarian was above 100 µM throughout.
